Source: publication PMC4844368 (The Biochemical journal, 2015)
Numbering of substitutions follows the chain as printed. Each block holds one molecule with its values, some of them ahead of it.

Tests used:
[1] = molecular target: T1, TRB2 (Homo sapiens, UniProt Q92519); experiment: intrinsic fluorescence thermal shift; type: binding; details: 1 mM ATP, 2 mM EDTA, TRB buffer pH 9.0
T1 sequence (Q92519 1-343): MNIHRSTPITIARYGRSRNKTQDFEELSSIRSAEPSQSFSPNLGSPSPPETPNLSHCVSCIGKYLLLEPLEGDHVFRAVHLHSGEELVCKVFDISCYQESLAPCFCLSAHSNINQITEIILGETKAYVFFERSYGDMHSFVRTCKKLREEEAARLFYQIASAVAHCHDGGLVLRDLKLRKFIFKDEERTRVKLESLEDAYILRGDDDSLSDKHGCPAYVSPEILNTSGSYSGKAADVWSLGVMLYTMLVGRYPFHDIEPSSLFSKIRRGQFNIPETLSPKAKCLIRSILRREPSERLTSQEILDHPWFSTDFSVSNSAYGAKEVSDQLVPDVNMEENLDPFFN

[2] = molecular target: T2, TRB2 (Homo sapiens, UniProt Q92519, K90M); experiment: intrinsic fluorescence thermal shift; type: binding; details: 1 mM ATP, 2 mM EDTA, TRB buffer pH 9.0
T2 sequence (Q92519 1-343 K90M): T1 sequence (Q92519 1-343) with K90M

[3] = molecular target: T3, Aurora A (Homo sapiens, UniProt O14965); experiment: intrinsic fluorescence thermal shift; type: binding; details: 1 mM ATP, 10 mM Mg2+, no EDTA, TRB buffer pH 9.0
T3 sequence (O14965 1-403): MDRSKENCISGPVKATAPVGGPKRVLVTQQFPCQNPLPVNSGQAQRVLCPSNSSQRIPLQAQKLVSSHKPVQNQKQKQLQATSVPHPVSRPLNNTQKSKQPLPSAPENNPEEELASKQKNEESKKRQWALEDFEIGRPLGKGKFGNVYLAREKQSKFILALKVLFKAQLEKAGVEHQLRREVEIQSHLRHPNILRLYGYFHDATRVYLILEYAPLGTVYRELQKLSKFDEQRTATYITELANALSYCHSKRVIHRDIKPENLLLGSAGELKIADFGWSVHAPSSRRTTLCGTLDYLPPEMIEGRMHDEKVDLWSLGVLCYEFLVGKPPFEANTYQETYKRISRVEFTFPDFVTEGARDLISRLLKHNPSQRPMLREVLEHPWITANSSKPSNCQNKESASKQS

[4] = molecular target: T4, CASK (Homo sapiens, UniProt O14936); experiment: Sypro Orange thermal shift; type: binding; details: ATP dose series, 2 mM EDTA, TRB buffer pH 9.0
T4 sequence (O14936 1-337): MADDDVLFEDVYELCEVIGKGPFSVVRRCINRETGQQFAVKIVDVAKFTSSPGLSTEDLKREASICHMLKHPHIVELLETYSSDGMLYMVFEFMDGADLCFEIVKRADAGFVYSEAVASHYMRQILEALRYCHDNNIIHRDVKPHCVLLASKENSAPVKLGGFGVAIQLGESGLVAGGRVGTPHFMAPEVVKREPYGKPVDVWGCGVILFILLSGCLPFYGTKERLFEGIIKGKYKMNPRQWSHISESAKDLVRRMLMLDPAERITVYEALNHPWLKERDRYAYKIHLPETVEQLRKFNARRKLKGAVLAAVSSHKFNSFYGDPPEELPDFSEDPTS

[5] = molecular target: T5, TRB2 (Homo sapiens, UniProt Q92519, K90A); experiment: intrinsic fluorescence thermal shift; type: binding; details: 1 mM ATP, 2 mM EDTA, TRB buffer pH 9.0
T5 sequence (Q92519 1-343 K90A): T1 sequence (Q92519 1-343) with K90A

[6] = substrate: Nc1ncnc2c1ncn2[C@@H]1O[C@H](COP(=O)(O)OP(=O)(O)OP(=O)(O)O)[C@@H](O)[C@H]1O; experiment: purified protein; type: biochemical, Homo sapiens; details: co-substrate histone H3; Mg2+-ATP

ΔTm [1]: 3.64 °C
ΔTm [2]: 1.59 °C
ΔTm [3]: 2.99 °C
ΔTm [5]: 0.23 °C
Molecule: Nc1ncnc2c1ncn2[C@@H]1O[C@H](COP(=O)(O)OP(=O)(O)OP(=O)(O)O)[C@@H](O)[C@H]1O [ATP]
ΔTm [4]: both CASK and TRB2 exhibited demonstrable dose-dependent binding to ATP

B1: Aurora A (Homo sapiens) (protein)
chain: T3 sequence (O14965 1-403)
Km [6]: 14.3 ± 2.6 µM
